Entries after “also recorded” stand apart in the source; their conditions may differ.
What was measured:
Assay type in all cases: in vivo, human
[1] = tested on: focal seizures with secondary generalisation in patients diagnosed with encephalocele; test: Open label, expanded-access program: frequency of focal seizures with secondary generalisation; conditions: Patient 2, baseline 85.0
Method: (§1) Subjects were required to be on one or more AEDs at stable doses for a minimum of two weeks prior to baseline and to have stable vagus nerve stimulation (VNS) settings and ketogenic diet ratios for a minimum of four weeks prior to baseline.
(§2) A maximum dose of 50 mg/kg/day could be utilised for patients who were tolerating the medication but had not achieved seizure control; these patients had further weekly titration by 5 mg/kg/day.
(§3) Modifications were made to concomitant AEDs as per clinical indication.
(§4) Seizure frequency, intensity, and duration were recorded by caregivers in a diary during a baseline period of at least 28 days. Changes in seizure frequency relative to baseline were calculated after at least 2 weeks and at defined timepoints of treatment.
(§5) Patients may be defined as responders if they had more than 50% reduction in seizure frequency compared to baseline. The percent change in seizure frequency was calculated as follows: […]
(§6) The percent change of seizure frequency may be calculated for any time interval where seizure number has been recorded. For the purpose of this example the percent change of seizure frequency for the end of the treatment period was calculated as follows: […]

[2] = tested on: seizures associated with encephalocele; test: Open label, expanded-access program: seizures overall; conditions: two patients
Method: as §1, §2, §3, §4, §5, §6

[3] = tested on: absence seizures in patients diagnosed with encephalocele; test: Open label, expanded-access program: absence seizure frequency; conditions: for Seizure frequency, Absence: baseline 6.8
Method: as §1, §2, §3, §4, §5, §6

[4] = tested on: focal seizures with impairment in patients diagnosed with encephalocele; test: Open label, expanded-access program: frequency of focal seizures with impairment; parameters: Seizure frequency, Focal with impairment: unit not given here
Method: as §1, §3, §4, §5, §6

## C=C(C)[C@@H]1CCC(C)=C[C@H]1c1c(O)cc(CCCCC)cc1O [CBD, cannabidiol]
[1]; 2 weeks, CBD 10.0 mg/kg/day
  Seizure frequency, Focal with secondary generalisation: 90.0
[1]; 4 weeks, CBD 20.0 mg/kg/day
  Seizure frequency, Focal with secondary generalisation: 28.8
[1]; 8 weeks, CBD 25.0 mg/kg/day
  Seizure frequency, Focal with secondary generalisation: 90.2
[1]; 12 weeks, CBD 25.0 mg/kg/day
  Seizure frequency, Focal with secondary generalisation: 197.9
[1]; 16 weeks, CBD 25.0 mg/kg/day
  Seizure frequency, Focal with secondary generalisation: 212.8
[1]; 24 weeks, CBD 25.0 mg/kg/day
  Seizure frequency, Focal with secondary generalisation: 145.6
[1]; 48 weeks, CBD 46.0 mg/kg/day
  Seizure frequency, Focal with secondary generalisation: 143.1
[1]; 60 weeks, CBD 24.0 mg/kg/day
  Seizure frequency, Focal with secondary generalisation: 141.0
[1]; 72 weeks, CBD 25.0 mg/kg/day
  Seizure frequency, Focal with secondary generalisation: 148.6
[1]; 84 weeks, CBD 25.0 mg/kg/day
  Seizure frequency, Focal with secondary generalisation: 143.1
[1]; 96 weeks, CBD 25.0 mg/kg/day
  Seizure frequency, Focal with secondary generalisation: 117.8
[1]; 108 weeks, CBD 20.0 mg/kg/day
  Seizure frequency, Focal with secondary generalisation: 119.1
[1]; 120 weeks, CBD 20.0 mg/kg/day
  Seizure frequency, Focal with secondary generalisation: 146.6
[1]; 144 weeks, CBD 22.0 mg/kg/day
  Seizure frequency, Focal with secondary generalisation: 91.1
[2]
  effect on number of seizures associated with encephalocele (in words): significantly reduce the number of seizures
[2]; absence and focal seizures with impairment, relative to baseline
  reductions in seizures over period of treatment: 20-100%
[3]; Patient 1, 2 weeks, CBD 15.0 mg/kg/day
  Seizure frequency, Absence: 6.0
[3]; Patient 1, 4 weeks, CBD 25.0 mg/kg/day
  Seizure frequency, Absence: 8.0
[3]; Patient 1, 8 weeks, CBD 30.0 mg/kg/day
  Seizure frequency, Absence: 0
[3]; Patient 1, 12 weeks, CBD 25.0 mg/kg/day
  Seizure frequency, Absence: 0
[3]; Patient 1, 24 weeks, CBD 15.0 mg/kg/day
  Seizure frequency, Absence: 1.6
[3]; Patient 1, 36 weeks, CBD 10.0 mg/kg/day
  Seizure frequency, Absence: 0
[3]; Patient 1, 48 weeks, CBD 10.0 mg/kg/day
  Seizure frequency, Absence: 0
[3]; Patient 1, 60 weeks, CBD 15.0 mg/kg/day
  Seizure frequency, Absence: 0
[3]; Patient 1, 84 weeks, CBD 15.0 mg/kg/day
  Seizure frequency, Absence: 0
[3]; Patient 1, after 36 weeks of treatment
  seizure freedom from absence seizures: completely seizure free from absence seizures
[3]; Patient 1, treated for 144 weeks, relative to baseline
  reduction in absence seizures over the treatment period: 100%
[3]; patients with encephalocele
  effect on frequency of absence seizures (in words): effective in reducing the frequency; also recorded: significant reduction
[4]; Patient 1, 4 weeks, CBD 25.0 mg/kg/day, baseline 92.5
  Seizure frequency, Focal with impairment: 104.0
[4]; Patient 1, 8 weeks, CBD 30.0 mg/kg/day, baseline 92.5
  Seizure frequency, Focal with impairment: 92.8
[4]; Patient 1, 12 weeks, CBD 25.0 mg/kg/day, baseline 92.5
  Seizure frequency, Focal with impairment: 98.0
[4]; Patient 1, 24 weeks, CBD 15.0 mg/kg/day, baseline 92.5
  Seizure frequency, Focal with impairment: 93.1
[4]; Patient 1, 60 weeks, CBD 15.0 mg/kg/day, baseline 92.5
  Seizure frequency, Focal with impairment: 95.0
[4]; Patient 2, 2 weeks, CBD 10.0 mg/kg/day, baseline 6.0
  Seizure frequency, Focal with impairment: 10.0
[4]; Patient 2, 4 weeks, CBD 20.0 mg/kg/day, baseline 6.0
  Seizure frequency, Focal with impairment: 6.8
[4]; Patient 2, 8 weeks, CBD 25.0 mg/kg/day, baseline 6.0
  Seizure frequency, Focal with impairment: 13.5
[4]; Patient 2, 12 weeks, CBD 25.0 mg/kg/day, baseline 6.0
  Seizure frequency, Focal with impairment: 25.1
[4]; Patient 2, 16 weeks, CBD 25.0 mg/kg/day, baseline 6.0
  Seizure frequency, Focal with impairment: 14.6
[4]; Patient 2, 24 weeks, CBD 25.0 mg/kg/day, baseline 6.0
  Seizure frequency, Focal with impairment: 12.9
[4]; Patient 2, 48 weeks, CBD 46.0 mg/kg/day, baseline 6.0
  Seizure frequency, Focal with impairment: 14.5
[4]; Patient 2, 60 weeks, CBD 24.0 mg/kg/day, baseline 6.0
  Seizure frequency, Focal with impairment: 18.1
[4]; Patient 2, 72 weeks, CBD 25.0 mg/kg/day, baseline 6.0
  Seizure frequency, Focal with impairment: 13.4
[4]; Patient 2, 84 weeks, CBD 25.0 mg/kg/day, baseline 6.0
  Seizure frequency, Focal with impairment: 9.8
[4]; Patient 2, 96 weeks, CBD 25.0 mg/kg/day, baseline 6.0
  Seizure frequency, Focal with impairment: 22.9
[4]; Patient 2, 108 weeks, CBD 20.0 mg/kg/day, baseline 6.0
  Seizure frequency, Focal with impairment: 9.4
[4]; Patient 2, 120 weeks, CBD 20.0 mg/kg/day, baseline 6.0
  Seizure frequency, Focal with impairment: 11.3
[4]; Patient 2, 144 weeks, CBD 22.0 mg/kg/day, baseline 6.0
  Seizure frequency, Focal with impairment: 4.8
[4]; Patient 2, treated for 144 weeks, relative to baseline
  reduction in focal seizures with impairment over the treatment period: 20%
[4]; patients with encephalocele
  effect on frequency of focal seizures with impairment (in words): effective in reducing the frequency; also recorded: significant reduction
